The values that follow come from PubChem BioAssay AID330 (DTP/NCI, 2004).

Where “and” joins values, the source holds several entries; their conditions need not be identical. Identical values can stand only once. Toxic doses and inconclusive results are not listed. Square brackets hold non-standard residues; d marks the D form. Peptide text beside a SMILES is read from it. * marks the point of attachment. Cbz = O=C(OCc1ccccc1)*; Nva = CCC[CH](N)C(=O)O

The test concerns P388 leukemia ip, CD2F1 mice, survival T/C. In words: NCI In Vivo Anticancer Drug Screen. Data for tumor model P388 Leukemia (intraperitoneal) in CD2F1 (CDF1) mice. The note with it: endpoint: median survival time, higher = longer survival. The essentials:
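Mice carrying the transplanted tumor received test compound or vehicle. Survival was recorded in each group, and the value is the treated-group measurement divided by that of the vehicle-treated control group.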

Where [1] appears, read: dose: 6.25 mg/kg/injection, schedule: Q01DX009 (ip), vehicle: saline with Tween-80.
Where [2] appears, read: dose: 50.0 mg/kg/injection, schedule: Q01DX005 (ip), vehicle: saline with Tween-80.
Setting [3] is: dose: 100.0 mg/kg/injection, schedule: Q01DX005 (ip), vehicle: saline with Tween-80.
Setting [4] is: dose: 15.0 mg/kg/injection, schedule: Q01DX005 (ip), vehicle: saline with Tween-80.
[5] abbreviates: dose: 30.0 mg/kg/injection, schedule: Q01DX005 (ip), vehicle: saline with Tween-80.
The mark [6] stands for this setting: dose: 60.0 mg/kg/injection, schedule: Q01DX005 (ip), vehicle: saline with Tween-80.
Where [7] appears, read: dose: 60.0 mg/kg/injection, schedule: Q01DX005 (ip), vehicle: Klucel (hydroxypropylcellulose) (HPC).
Setting [8] is: dose: 50.0 mg/kg/injection, schedule: Q01DX005 (ip), vehicle: saline.
The mark [9] stands for this setting: dose: 50.0 mg/kg/injection, schedule: Q01DX009 (ip), vehicle: saline with Tween-80.
Where [10] appears, read: dose: 100.0 mg/kg/injection, schedule: Q01DX009 (ip), vehicle: saline with Tween-80.
Setting [11] is: dose: 50.0 mg/kg/injection, schedule: Q01DX009 (ip), vehicle: Klucel (hydroxypropylcellulose) (HPC).
The mark [12] stands for this setting: dose: 100.0 mg/kg/injection, schedule: Q01DX009 (ip), vehicle: Klucel (hydroxypropylcellulose) (HPC).
Where [13] appears, read: dose: 200.0 mg/kg/injection, schedule: Q01DX009 (ip), vehicle: Klucel (hydroxypropylcellulose) (HPC).
[14] abbreviates: dose: 15.0 mg/kg/injection, schedule: Q01DX005 (ip), vehicle: Klucel (hydroxypropylcellulose) (HPC).
The mark [15] stands for this setting: dose: 30.0 mg/kg/injection, schedule: Q01DX005 (ip), vehicle: Klucel (hydroxypropylcellulose) (HPC).
[16] abbreviates: dose: 240.0 mg/kg/injection, schedule: Q01DX005 (ip), vehicle: saline with Tween-80.
The mark [17] stands for this setting: dose: 100.0 mg/kg/injection, schedule: Q01DX001 (ip), vehicle: saline with Tween-80.
Where [18] appears, read: dose: 200.0 mg/kg/injection, schedule: Q01DX001 (ip), vehicle: saline with Tween-80.
Where [19] appears, read: dose: 400.0 mg/kg/injection, schedule: Q01DX001 (ip), vehicle: saline with Tween-80.

For `C=CC(C)(Cl)C(Cl)/C=C/C(C=O)=C/Cl` (centres undefined), the T/C (dose: 1.75 mg/kg/injection, schedule: Q01DX009 (ip), vehicle: Klucel (hydroxypropylcellulose) (HPC)) is 101 % of control; the T/C (dose: 3.5 mg/kg/injection, schedule: Q01DX009 (ip), vehicle: Klucel (hydroxypropylcellulose) (HPC)) was 100 % of control; the T/C (dose: 7.0 mg/kg/injection, schedule: Q01DX009 (ip), vehicle: Klucel (hydroxypropylcellulose) (HPC)) was 101 % of control; the T/C (dose: 14.0 mg/kg/injection, schedule: Q01DX009 (ip), vehicle: Klucel (hydroxypropylcellulose) (HPC)) was 100 % of control.

Take `CCOCCC(=NC(C)(C)C)Nc1ccccc1C`: the T/C reads like this: (dose: 50.0 mg/kg/injection, schedule: Q01DX009 (ip), vehicle: saline) 107 % of control; (dose: 100.0 mg/kg/injection, schedule: Q01DX009 (ip), vehicle: saline) 115 % of control.

As for `C/C(=N\NC(=S)N(C)C)c1ccccn1`, under setting [1], the T/C is 100 % of control.

For `CCC(C)n1c(C)nc2c(N)cc(C(F)(F)F)cc21` (centres undefined), the T/C by setting is: under setting [2], 97 % of control; under setting [3], 91 % of control; (dose: 200.0 mg/kg/injection, schedule: Q01DX005 (ip), vehicle: saline with Tween-80) 102 % of control.

In the case of `COc1ccc(C(c2c(O)c3ccccc3oc2=O)N2CCCC2)cc1` (centres undefined), the T/C under setting [4] was 100 % of control; the T/C under setting [5] was 100 % of control; the T/C under setting [6] is 103 % of control and 97 % of control.

With `O=[N+]([O-])c1ccc(Sc2ncnc3c2ncn3C2OC(CO)C(O)C2O)c2nonc12` (centres undefined), the T/C is 119 % of control (dose: 12.5 mg/kg/injection, schedule: Q01DX009 (ip), vehicle: suspension in saline); 103 % of control and 122 % of control (dose: 50.0 mg/kg/injection, schedule: Q01DX009 (ip), vehicle: suspension in saline).

Regarding `OCc1ccc(CO)cc1`, the T/C runs as follows: (dose: 100.0 mg/kg/injection, schedule: Q04DX003 (ip), vehicle: saline sonified) 104 % of control; (dose: 200.0 mg/kg/injection, schedule: Q04DX003 (ip), vehicle: saline sonified) 100 % of control; (dose: 400.0 mg/kg/injection, schedule: Q04DX003 (ip), vehicle: saline sonified) 100 % of control.

Take `Cn1c(N)nc2c([nH]c(=O)n2C2OC(CO)C(O)C2O)c1=O` (centres undefined): the T/C is, setting by setting: under setting [7], 105 % of control; (dose: 120.0 mg/kg/injection, schedule: Q01DX005 (ip), vehicle: Klucel (hydroxypropylcellulose) (HPC)) 111 % of control; (dose: 240.0 mg/kg/injection, schedule: Q01DX005 (ip), vehicle: Klucel (hydroxypropylcellulose) (HPC)) 111 % of control.

Consider `O=NN(CC(=O)O)CC1(O)OCC(O)C(O)C1O` (centres undefined), for which the T/C is 94 % of control under setting [8]; 105 % of control (dose: 100.0 mg/kg/injection, schedule: Q01DX005 (ip), vehicle: saline); 103 % of control (dose: 200.0 mg/kg/injection, schedule: Q01DX005 (ip), vehicle: saline).

Consider `CCc1cccc(CC)c1NC(=S)NC(=O)c1ccccc1`, for which the T/C under setting [9] is 95 % of control; the T/C under setting [10] is 96 % of control; the T/C (dose: 200.0 mg/kg/injection, schedule: Q01DX009 (ip), vehicle: saline with Tween-80) is 96 % of control.

Turning to `CCCC(NC(=O)OCc1ccccc1)C(=O)NC(Cc1ccccc1)C(=O)O` (centres undefined) (Cbz-[Nva]-Phe-OH; configuration not given here), the T/C by setting is: (dose: 50.0 mg/kg/injection, schedule: Q01DX005 (ip), vehicle: Klucel (hydroxypropylcellulose) (HPC)) 108 % of control; (dose: 100.0 mg/kg/injection, schedule: Q01DX005 (ip), vehicle: Klucel (hydroxypropylcellulose) (HPC)) 106 % of control; (dose: 200.0 mg/kg/injection, schedule: Q01DX005 (ip), vehicle: Klucel (hydroxypropylcellulose) (HPC)) 100 % of control.

On to `Cc1cccc2c1CN1CC(=O)NC1=N2`, for which the T/C under setting [11] is 103 % of control, the T/C under setting [12] is 97 % of control and the T/C under setting [13] is 86 % of control.

With `O=S1(N2CC2)=NP(N2CC2)(N2CC2)=NP(N2CC2)(N2CC2)=N1` (centres undefined), the T/C (dose: 100.0 mg/kg/injection, schedule: Q04DX002 (ip), vehicle: saline) is 168 % of control and the T/C (dose: 150.0 mg/kg/injection, schedule: Q04DX002 (ip), vehicle: saline) is 198 % of control.

On to `O=C(Nc1cccc2ccccc12)C1C(=O)C(=O)N(c2cccc3ccccc23)C1=O` (centres undefined), for which the T/C runs as follows: under setting [11], 103 % of control; under setting [12], 105 % of control; under setting [13], 100 % of control.

Turning to `Cc1[nH]c2ccc(N(C)C)cc2c(=O)c1CN(Cc1ccccc1)Cc1c(C)[nH]c2ccc(N(C)C)cc2c1=O`, the T/C runs as follows: (dose: 7.5 mg/kg/injection, schedule: Q01DX005 (ip), vehicle: Klucel (hydroxypropylcellulose) (HPC)) 94 % of control; under setting [14], 89 % of control; under setting [15], 86 % of control.

With `[N-]=[N+]=Nc1cc(Cl)nnc1-c1ccccc1`, the T/C is 107 % of control under setting [14], 105 % of control under setting [15] and 100 % of control under setting [7].

Turning to `CC(C)(C)[Si](OC(=O)CCCc1ccc(N(CCCl)CCCl)cc1)(c1ccccc1)c1ccccc1`, the T/C was 123 % of control (dose: 25.0 mg/kg/injection, schedule: Q01DX005 (ip), vehicle: saline with Tween-80); 155 % of control and 175 % of control under setting [2]; 255 % of control under setting [3].

On to `CC12CC[C]([Hg][I])(CC1)C2(C)C`, for which the T/C was 105 % of control under setting [1]; 112 % of control (dose: 12.5 mg/kg/injection, schedule: Q01DX009 (ip), vehicle: saline with Tween-80); 107 % of control (dose: 25.0 mg/kg/injection, schedule: Q01DX009 (ip), vehicle: saline with Tween-80).

As for `Cc1c(C(N)=O)c(NC=O)n(-c2ccccc2)c1C`, the T/C under setting [6] was 100 % of control; the T/C (dose: 120.0 mg/kg/injection, schedule: Q01DX005 (ip), vehicle: saline with Tween-80) was 99 % of control; the T/C under setting [16] was 93 % of control.

For the compound `CC(=NC(C)(C)C)Nc1ccc(Cl)cc1`, the T/C runs as follows: under setting [9], 103 % of control; under setting [10], 109 % of control.

Take `CCCCN1CSC(=S)N(Cc2ccccc2)C1`: the T/C is 115 % of control (dose: 50.0 mg/kg/injection, schedule: Q01DX009 (ip), vehicle: other); 108 % of control (dose: 100.0 mg/kg/injection, schedule: Q01DX009 (ip), vehicle: other); 92 % of control (dose: 200.0 mg/kg/injection, schedule: Q01DX009 (ip), vehicle: other).

For the compound `O=C1C=CC(Nc2cccc([N+](=O)[O-])c2)C1Nc1cccc([N+](=O)[O-])c1` (centres undefined), the T/C was 102 % of control (dose: 7.5 mg/kg/injection, schedule: Q01DX005 (ip), vehicle: saline with Tween-80); 90 % of control under setting [4]; 91 % of control under setting [5]; 88 % of control and 92 % of control under setting [16].

On to `Cc1nn(C(=S)S)c(C)c1N=Nc1cccc(Cl)c1Cl`, for which the T/C is 91 % of control under setting [17], 94 % of control under setting [18] and 108 % of control under setting [19].

As to `CC12Oc3ccc(Cl)cc3C1(C)c1cc(Cl)ccc1O2` (centres undefined), the T/C is, setting by setting: (dose: 50.0 mg/kg/injection, schedule: Q01DX009 (ip), vehicle: acetone) 104 % of control; (dose: 100.0 mg/kg/injection, schedule: Q01DX009 (ip), vehicle: acetone) 102 % of control; (dose: 200.0 mg/kg/injection, schedule: Q01DX009 (ip), vehicle: acetone) 102 % of control.

In the case of `CCOC(=O)CCCCCO`, the T/C under setting [17] was 104 % of control, the T/C under setting [18] was 104 % of control and the T/C under setting [19] is 106 % of control.

Take `CCN(CC)CCCC(C)N(C)CC(C)CCC1=C(C)CCCC1(C)C` (centres undefined): the T/C is 97 % of control (dose: 12.5 mg/kg/injection, schedule: Q01DX005 (ip), vehicle: saline); 101 % of control (dose: 25.0 mg/kg/injection, schedule: Q01DX005 (ip), vehicle: saline); 104 % of control under setting [8].
